In brackets after ≈: the same amount, converted by molar mass. Activity calls are given as the source filed them. No cut-off for these calls is given here.
Legend:
Staphylococcus aureus [1] = test: Inhibition of ribosomal 50S subunit synthesis in methicillin-resistant Staphylococcus aureus A1024 at 8 ng/mL by [3H]uridine pulse-chase labeling method; format: functional, organism-based
Staphylococcus aureus [2] = test: Inhibition of ribosomal 50S subunit synthesis in wild type Staphylococcus aureus RN1786 at 8 ng/mL by [3H]uridine pulse-chase labeling method; format: functional, organism-based
Staphylococcus aureus [3] = test: Reduction of 23S rRNA level in wild type Staphylococcus aureus RN1786 at 10 ng/mL by agilent bioanalyzer analysis; format: functional; parameters: scale not given: the % may be the effect or the level left
Staphylococcus aureus [4] = test: Reduction of 23S rRNA level in wild type Staphylococcus aureus RN1786 at 20 ng/mL by agilent bioanalyzer analysis; format: functional; parameters: scale not given: the % may be the effect or the level left
Staphylococcus aureus [5] = test: Reduction of 23S rRNA level in methicillin-resistant Staphylococcus aureus A1024 at 10 ng/mL by agilent bioanalyzer analysis; format: functional; parameters: scale not given: the % may be the effect or the level left
Staphylococcus aureus [6] = test: Reduction of 23S rRNA level in methicillin-resistant Staphylococcus aureus A1024 at 20 ng/mL by agilent bioanalyzer analysis; format: functional; parameters: scale not given: the % may be the effect or the level left
Staphylococcus aureus [7] = test: Effect on 16S rRNA level in wild type Staphylococcus aureus RN1786 at 10 ng/mL by agilent bioanalyzer analysis; format: functional
Staphylococcus aureus [8] = test: Effect on 16S rRNA level in wild type Staphylococcus aureus RN1786 at 20 ng/mL by agilent bioanalyzer analysis; format: functional
Staphylococcus aureus [9] = test: Effect on 16S rRNA level in methicillin-resistant Staphylococcus aureus A1024 at 10 ng/mL by agilent bioanalyzer analysis; format: functional
Staphylococcus aureus [10] = test: Effect on 16S rRNA level in methicillin-resistant Staphylococcus aureus A1024 at 20 ng/mL by agilent bioanalyzer analysis; format: functional
Staphylococcus aureus [11] = test: Increase in small RNA level in wild type Staphylococcus aureus RN1786 at 10 ng/mL by agilent bioanalyzer analysis; format: functional
Staphylococcus aureus [12] = test: Increase in small RNA level in wild type Staphylococcus aureus RN1786 at 20 ng/mL by agilent bioanalyzer analysis; format: functional
Staphylococcus aureus [13] = test: Increase in small RNA level in methicillin-resistant Staphylococcus aureus A1024 at 10 ng/mL by agilent bioanalyzer analysis; format: functional
Staphylococcus aureus [14] = test: Increase in small RNA level in methicillin-resistant Staphylococcus aureus A1024 at 20 ng/mL by agilent bioanalyzer analysis; format: functional
Staphylococcus aureus [15] = test: Inhibition of total viable cell number in wild type Staphylococcus aureus RN1786; format: functional, organism-based
Staphylococcus aureus [16] = test: Inhibition of total viable cell number in methicillin-resistant Staphylococcus aureus A1024; format: functional, organism-based
Staphylococcus aureus [17] = test: Inhibition of protein synthesis in wild type Staphylococcus aureus RN1786; format: functional, organism-based
Staphylococcus aureus [18] = test: Inhibition of protein synthesis in methicillin-resistant Staphylococcus aureus A1024; format: functional, organism-based
Staphylococcus aureus [19] = test: Inhibition of ribosomal 50S subunit synthesis in wild type Staphylococcus aureus RN1786; format: functional, organism-based
Staphylococcus aureus [20] = test: Inhibition of ribosomal 50S subunit synthesis in methicillin-resistant Staphylococcus aureus A1024; format: functional, organism-based
Staphylococcus aureus [21] = test: Inhibition of ribosomal 30S subunit formation in wild type Staphylococcus aureus RN1786; format: functional, organism-based
Staphylococcus aureus [22] = test: Inhibition of ribosomal 30S subunit formation in methicillin-resistant Staphylococcus aureus A1024; format: functional, organism-based
Staphylococcus aureus [23] = test: Antibacterial activity against wild type Staphylococcus aureus RN1786; format: functional
Staphylococcus aureus [24] = test: Antibacterial activity against methicillin-resistant Staphylococcus aureus A1024; format: functional
Staphylococcus aureus [25] = test: Inhibition of ribosomal 30S subunit synthesis in methicillin-resistant Staphylococcus aureus A1024 at 8 ng/mL by [3H]uridine pulse-chase labeling method; format: functional, organism-based

C=C[C@]1(C)C[C@@H](OC(=O)CS[C@@H]2C[C@H]3CC[C@@H](C2)N3C)[C@]2(C)[C@H](C)CC[C@]3(CCC(=O)[C@H]32)[C@@H](C)[C@@H]1O [RETAPAMULIN]
Activity (Staphylococcus aureus [1]): Active
Activity (Staphylococcus aureus [2]): Active
Activity (Staphylococcus aureus [3]): 15.3%
Activity (Staphylococcus aureus [4]): 16.6%
Activity (Staphylococcus aureus [5]): 14.1%
Activity (Staphylococcus aureus [6]): 12.3%
Activity (Staphylococcus aureus [7]): 19.8%
Activity (Staphylococcus aureus [8]): 19.7%
Activity (Staphylococcus aureus [9]): 18.8%
Activity (Staphylococcus aureus [10]): 18.8%
Activity (Staphylococcus aureus [11]): 68.7%
Activity (Staphylococcus aureus [12]): 70.6%
Activity (Staphylococcus aureus [13]): 52.3%
Activity (Staphylococcus aureus [14]): 57.6%
IC50 (Staphylococcus aureus [15]): 0.012 µg/mL (≈ 0.0232 µM)
IC50 (Staphylococcus aureus [16]): 0.025 µg/mL (≈ 0.0483 µM)
IC50 (Staphylococcus aureus [17]): 0.005 µg/mL (≈ 0.00966 µM)
IC50 (Staphylococcus aureus [18]): 0.017 µg/mL (≈ 0.0328 µM)
IC50 (Staphylococcus aureus [19]): 0.027 µg/mL (≈ 0.0521 µM)
IC50 (Staphylococcus aureus [20]): 0.02 µg/mL (≈ 0.0386 µM)
Activity (Staphylococcus aureus [21]): inactive
Activity (Staphylococcus aureus [22]): inactive
MIC (Staphylococcus aureus [23]): 0.035 µg/mL (≈ 0.0676 µM)
MIC (Staphylococcus aureus [24]): 0.055 µg/mL (≈ 0.106 µM)
Activity (Staphylococcus aureus [25]): inactive

Reference: ChEMBL document CHEMBL1143405, “Retapamulin inhibition of translation and 50S ribosomal subunit formation in Staphylococcus aureus cells” (Antimicrob Agents Chemother, 2007)
